According to patent US9486506B2 (Novo Nordisk A/S, priority 2011, dated 2016):
pEC50: −log10 of the molar value. Numbered stars: 1 amine (or outer) side, 2 acyl side, 3 side chain; on linkers, the order of the positions; unused ones are H or OH. Side chains are listed from the residue outwards. Peptide text beside a SMILES is read from it. * marks the point of attachment. C18 diacid = O=C(O)CCCCCCCCCCCCCCCCC(=O)*; γGlu = O=C(O)[C@H](CCC(=O)[*:2])N[*:1]; AEEA = NCCOCCOCC(=O)O

Tests used:
[1] = Assay (X) Chemical stability assessment by RP-UPLC; assay type: physicochemical; conditions: pH 8.15, 14 days at 37° C. vs 5° C., 333 μM
[2] = target: T1, glucagon receptor (Homo sapiens, UniProt P47871); assay: Assay (I) Glucagon activity (cAMP biosensor, FLIPR); assay type: cell-based
T1 construct: expressed in transfected cells
T1 sequence (P47871 26-477): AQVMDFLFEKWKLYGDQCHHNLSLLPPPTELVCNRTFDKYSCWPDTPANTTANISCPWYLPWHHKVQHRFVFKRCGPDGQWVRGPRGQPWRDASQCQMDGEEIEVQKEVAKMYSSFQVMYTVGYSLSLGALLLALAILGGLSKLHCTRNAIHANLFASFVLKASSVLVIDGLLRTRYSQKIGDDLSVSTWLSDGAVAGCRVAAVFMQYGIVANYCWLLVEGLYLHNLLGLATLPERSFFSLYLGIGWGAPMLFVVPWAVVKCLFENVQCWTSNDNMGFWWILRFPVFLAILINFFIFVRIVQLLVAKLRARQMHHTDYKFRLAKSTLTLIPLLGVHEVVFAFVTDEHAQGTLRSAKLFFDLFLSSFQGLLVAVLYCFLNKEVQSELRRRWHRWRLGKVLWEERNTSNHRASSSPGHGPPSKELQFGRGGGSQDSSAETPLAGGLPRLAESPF

For CC(C)C[C@H](NC(=O)[C@H](Cc1ccc(O)cc1)NC(=O)[C@H](CCCCN)NC(=O)[C@H](CO)NC(=O)[C@H](Cc1ccc(O)cc1)NC(=O)[C@H](CC(=O)O)NC(=O)[C@H](CO)NC(=O)[C@@H](NC(=O)[C@H](Cc1ccccc1)NC(=O)[C@@H](NC(=O)CNC(=O)[C@H](CCC(N)=O)NC(=O)[C@H](CO)NC(=O)[C@@H](N)Cc1c[nH]cn1)[C@@H](C)O)[C@@H](C)O)C(=O)N[C@@H](CC(=O)O)C(=O)N[C@@H](C)C(=O)N[C@@H](CCCNC(=N)N)C(=O)N[C@@H](CCCNC(=N)N)C(=O)N[C@@H](C)C(=O)N[C@@H](CCC(N)=O)C(=O)N[C@@H](CC(=O)O)C(=O)N[C@@H](Cc1ccccc1)C(=O)N[C@H](C(=O)N[C@@H](CCCCNC(=O)CC[C@H](NC(=O)CC[C@H](NC(=O)COCCOCCNC(=O)COCCOCCNC(=O)CC[C@H](NC(=O)CCCCCCCCCCCCCCCCC(=O)O)C(=O)O)C(=O)O)C(=O)O)C(=O)N[C@@H](Cc1c[nH]c2ccccc12)C(=O)N[C@@H](CC(C)C)C(=O)N[C@@H](CC(C)C)C(=O)N[C@@H](CO)C(=O)N[C@H](C(=O)O)[C@@H](C)O)C(C)C [Example 43, N^ε24-[(4S)-4-carboxy-4-[[(4S)-4-carboxy-4-[[2-[2-[2-[[2-[2-[2-[[(4S)-4-carboxy-4-(17-carboxyheptadecanoylamino)butanoyl]amino]ethoxy]ethoxy]acetyl]amino]ethoxy]ethoxy]acetyl]amino]butanoyl]amino]butanoyl]-[Ala16,Lys24,Leu27,Ser28]-Glucagon], the “Chemical stability [Purity loss/14 days 37 C.]” value [1] was 7.6% and the pEC50 [2] was 10.31.

In the case of CC(C)C[C@H](NC(=O)[C@H](Cc1c[nH]c2ccccc12)NC(=O)[C@H](CCCCNC(=O)CC[C@H](NC(=O)CC[C@H](NC(=O)COCCOCCNC(=O)COCCOCCNC(=O)CC[C@H](NC(=O)CCCCCCCCCCCCCCCCC(=O)O)C(=O)O)C(=O)O)C(=O)O)NC(=O)[C@@H](NC(=O)[C@H](Cc1ccccc1)NC(=O)[C@H](CC(=O)O)NC(=O)[C@H](CCC(N)=O)NC(=O)[C@H](C)NC(=O)[C@H](CCCNC(=N)N)NC(=O)[C@H](CCCNC(=N)N)NC(=O)[C@@H](NC(=O)[C@H](CC(=O)O)NC(=O)[C@H](CC(C)C)NC(=O)[C@H](Cc1ccc(O)cc1)NC(=O)[C@H](CCCNC(=N)N)NC(=O)[C@H](CO)NC(=O)[C@H](Cc1ccc(O)cc1)NC(=O)[C@H](CC(=O)O)NC(=O)[C@H](CO)NC(=O)[C@@H](NC(=O)[C@H](Cc1ccccc1)NC(=O)[C@@H](NC(=O)CNC(=O)[C@H](CCC(N)=O)NC(=O)[C@H](CO)NC(=O)[C@@H](N)Cc1c[nH]cn1)[C@@H](C)O)[C@@H](C)O)[C@@H](C)O)C(C)C)C(=O)N[C@@H](CCC(=O)O)C(=O)N[C@@H](CO)C(=O)N[C@H](C(=O)O)[C@@H](C)O [Example 44, N^ε24-[(4S)-4-carboxy-4-[[(4S)-4-carboxy-4-[[2-[2-[2-[[2-[2-[2-[[(4S)-4-carboxy-4-(17-carboxyheptadecanoylamino)butanoyl]amino]ethoxy]ethoxy]acetyl]amino]ethoxy]ethoxy]acetyl]amino]butanoyl]amino]butanoyl]-[Arg12,Thr16,Lys24,Glu27,Ser28]-Glucagon] (H-HSQGTFTSDYSRYLDTRRAQDFVK([γGlu-γGlu-AEEA-AEEA-γGlu-C18 diacid])WLEST-OH), the “Chemical stability [Purity loss/14 days 37 C.]” value [1] was 10.5% and the pEC50 [2] was 9.75.

In the case of CC(C)C[C@H](NC(=O)[C@H](CC(=O)O)NC(=O)[C@H](CC(C)C)NC(=O)[C@H](Cc1ccc(O)cc1)NC(=O)[C@H](CCCNC(=N)N)NC(=O)[C@H](CO)NC(=O)[C@H](Cc1ccc(O)cc1)NC(=O)[C@H](CC(=O)O)NC(=O)[C@H](CO)NC(=O)[C@@H](NC(=O)[C@H](Cc1ccccc1)NC(=O)[C@@H](NC(=O)CNC(=O)[C@H](CCC(N)=O)NC(=O)[C@H](CO)NC(=O)[C@@H](N)Cc1c[nH]cn1)[C@@H](C)O)[C@@H](C)O)C(=O)N[C@@H](CCCNC(=N)N)C(=O)N[C@@H](CCCNC(=N)N)C(=O)N[C@@H](C)C(=O)N[C@@H](CCC(N)=O)C(=O)N[C@@H](CC(=O)O)C(=O)N[C@@H](Cc1ccccc1)C(=O)N[C@H](C(=O)N[C@@H](CCCCNC(=O)CC[C@H](NC(=O)CC[C@H](NC(=O)CC[C@H](NC(=O)COCCOCCNC(=O)COCCOCCNC(=O)CC[C@H](NC(=O)CCCCCCCCCCCCCCCCC(=O)O)C(=O)O)C(=O)O)C(=O)O)C(=O)O)C(=O)N[C@@H](Cc1c[nH]c2ccccc12)C(=O)N[C@@H](CC(C)C)C(=O)N[C@@H](CC(C)C)C(=O)N[C@@H](CO)C(=O)N[C@H](C(=O)O)[C@@H](C)O)C(C)C [Example 45, N^ε24-[(4S)-4-carboxy-4-[[(4S)-4-carboxy-4-[[(4S)-4-carboxy-4-[[2-[2-[2-[[2-[2-[2-[[(4S)-4-carboxy-4-(17-carboxyheptadecanoylamino)butanoyl]amino]ethoxy]ethoxy]acetyl]amino]ethoxy]ethoxy]acetyl]amino]butanoyl]amino]butanoyl]amino]butanoyl]-[Arg12,Leu16,Lys24,Leu27,Ser28]-Glucagon] (H-HSQGTFTSDYSRYLDLRRAQDFVK([γGlu-γGlu-γGlu-AEEA-AEEA-γGlu-C18 diacid])WLLST-OH), the “Chemical stability [Purity loss/14 days 37 C.]” value [1] was 3.3% and the pEC50 [2] was 9.61.

With CC(C)C[C@H](NC(=O)[C@H](Cc1ccc(O)cc1)NC(=O)[C@H](CCCCN)NC(=O)[C@H](CO)NC(=O)[C@H](Cc1ccc(O)cc1)NC(=O)[C@H](CC(=O)O)NC(=O)[C@H](CO)NC(=O)[C@@H](NC(=O)[C@H](Cc1ccccc1)NC(=O)[C@@H](NC(=O)CNC(=O)[C@H](CCC(N)=O)NC(=O)[C@H](CO)NC(=O)[C@@H](N)Cc1c[nH]cn1)[C@@H](C)O)[C@@H](C)O)C(=O)N[C@@H](CCC(=O)O)C(=O)N[C@@H](CO)C(=O)N[C@@H](CCCNC(=N)N)C(=O)N[C@@H](CCCNC(=N)N)C(=O)N[C@@H](C)C(=O)N[C@@H](CCC(N)=O)C(=O)N[C@@H](CCC(=O)O)C(=O)N[C@@H](Cc1ccccc1)C(=O)N[C@H](C(=O)N[C@@H](CCCCNC(=O)CC[C@H](NC(=O)CC[C@H](NC(=O)CC[C@H](NC(=O)CC[C@H](NC(=O)CCCCCCCCCCCCCCCCC(=O)O)C(=O)O)C(=O)O)C(=O)O)C(=O)O)C(=O)N[C@@H](Cc1c[nH]c2ccccc12)C(=O)N[C@@H](CC(C)C)C(=O)N[C@@H](CC(C)C)C(=O)N[C@@H](CO)C(=O)N[C@H](C(=O)O)[C@@H](C)O)C(C)C [Example 49, N^ε24-[(4S)-4-carboxy-4-[[(4S)-4-carboxy-4-[[(4S)-4-carboxy-4-[[(4S)-4-carboxy-4-(17-carboxyheptadecanoylamino)butanoyl]amino]butanoyl]amino]butanoyl]amino]butanoyl]-[Glu15,Glu21,Lys24,Leu27,Ser28]-Glucagon] (H-HSQGTFTSDYSKYLESRRAQEFVK([γGlu-γGlu-γGlu-γGlu-C18 diacid])WLLST-OH) the “Chemical stability [Purity loss/14 days 37 C.]” value [1] was 6.8% and the pEC50 [2] was 9.77.

For CC(C)C[C@H](NC(=O)[C@H](Cc1ccc(O)cc1)NC(=O)[C@H](CCCCN)NC(=O)[C@H](CO)NC(=O)[C@@H](NC(=O)[C@H](CC(=O)O)NC(=O)[C@H](CO)NC(=O)[C@@H](NC(=O)[C@H](Cc1ccccc1)NC(=O)[C@@H](NC(=O)CNC(=O)[C@H](CCC(N)=O)NC(=O)[C@H](CO)NC(=O)[C@@H](N)Cc1c[nH]cn1)[C@@H](C)O)[C@@H](C)O)C(C)C)C(=O)N[C@@H](CCC(=O)O)C(=O)N[C@@H](CO)C(=O)N[C@@H](CCCNC(=N)N)C(=O)N[C@@H](CCCNC(=N)N)C(=O)N[C@@H](C)C(=O)N[C@@H](CCC(N)=O)C(=O)N[C@@H](CCC(=O)O)C(=O)N[C@@H](Cc1ccccc1)C(=O)N[C@H](C(=O)N[C@@H](CCCCNC(=O)CC[C@H](NC(=O)CC[C@H](NC(=O)CC[C@H](NC(=O)CC[C@H](NC(=O)CCCCCCCCCCCCCCCCC(=O)O)C(=O)O)C(=O)O)C(=O)O)C(=O)O)C(=O)N[C@@H](Cc1c[nH]c2ccccc12)C(=O)N[C@@H](CC(C)C)C(=O)N[C@@H](CC(C)C)C(=O)N[C@@H](CO)C(=O)N[C@H](C(=O)O)[C@@H](C)O)C(C)C [Example 50, N^ε24-[(4S)-4-carboxy-4-[[(4S)-4-carboxy-4-[[(4S)-4-carboxy-4-[[(4S)-4-carboxy-4-(17-carboxyheptadecanoylamino)butanoyl]amino]butanoyl]amino]butanoyl]amino]butanoy]-[Val10,Glu15,Glu21,Lys24,Leu27,Ser28]-Glucagon] (H-HSQGTFTSDVSKYLESRRAQEFVK([γGlu-γGlu-γGlu-γGlu-C18 diacid])WLLST-OH), the “Chemical stability [Purity loss/14 days 37 C.]” value [1] was 4.8% and the pEC50 [2] was 9.93.

For CC(C)C[C@H](NC(=O)[C@H](Cc1ccc(O)cc1)NC(=O)[C@H](CCCNC(=N)N)NC(=O)[C@H](CO)NC(=O)[C@H](Cc1ccc(O)cc1)NC(=O)[C@H](CC(=O)O)NC(=O)[C@H](CO)NC(=O)[C@@H](NC(=O)[C@H](Cc1ccccc1)NC(=O)[C@@H](NC(=O)CNC(=O)[C@H](CCC(N)=O)NC(=O)[C@H](CO)NC(=O)[C@@H](N)Cc1c[nH]cn1)[C@@H](C)O)[C@@H](C)O)C(=O)N[C@@H](CCC(=O)O)C(=O)N[C@@H](CO)C(=O)N[C@@H](CCCNC(=N)N)C(=O)N[C@@H](CCCNC(=N)N)C(=O)N[C@@H](C)C(=O)N[C@@H](CCC(N)=O)C(=O)N[C@@H](CCC(=O)O)C(=O)N[C@@H](Cc1ccccc1)C(=O)N[C@H](C(=O)N[C@@H](CCCCNC(=O)CC[C@H](NC(=O)CC[C@H](NC(=O)CC[C@H](NC(=O)CC[C@H](NC(=O)CCCCCCCCCCCCCCCCC(=O)O)C(=O)O)C(=O)O)C(=O)O)C(=O)O)C(=O)N[C@@H](Cc1c[nH]c2ccccc12)C(=O)N[C@@H](CC(C)C)C(=O)N[C@@H](CC(C)C)C(=O)N[C@@H](CO)C(=O)N[C@H](C(=O)O)[C@@H](C)O)C(C)C [Example 51, N^ε24-[(4S)-4-carboxy-4-[[(4S)-4-carboxy-4-[[(4S)-4-carboxy-4-[[(4S)-4-carboxy-4-(17-carboxyheptadecanoylamino)butanoyl]amino]butanoyl]amino]butanoyl]amino]butanoyl]-[Arg12,Glu15,Glu21,Lys24,Leu27,Ser28]-Glucagon] (H-HSQGTFTSDYSRYLESRRAQEFVK([γGlu-γGlu-γGlu-γGlu-C18 diacid])WLLST-OH), the “Chemical stability [Purity loss/14 days 37 C.]” value [1] was 5.7% and the pEC50 [2] was 9.83.
